Measurements as given in patent US8980951B2, “Sesquiterpenes for antifungal applications” (Kansas State University Research Foundation, priority 2011, dated 2015).

System: A. nidulans, C. albicans, C. albicans 95-158 Flu-R, Cryp. neomormans, Candida krusei, and C. glabrata
Assay: Fungicidal test, viability of treated fungal cells spotted on YPD agar
Format: cell-based
Conditions: after 72 h exposure

Row | SMILES | resistance in treated fungi
1 | C=C1CC[C@H]2C(C)(C)CCC[C@]2(C)[C@H]1CO [Albicanol, (+)-albicanol] | not observed
2 | CC1=CC[C@H]2C(C)(C)CCC[C@]2(C)[C@H]1CO [drimenol, (−)-drimenol] | not observed
